Structures are written as SMILES. Read-outs that look alike come from different tables or passages of the source.

This assay deals with Mycosphaerella graminicola; Anamorph: Septoria tritici; Bayer Code SEPTTR. In words: Leaf blotch of wheat, foliar fungicide treatment, one day protectant (1DP) or three day curative (3DC). Format: in vivo, Septoria tritici on wheat plants (variety Yuma). To be noted: Zymoseptoria tritici; for pest or weed control at 50 ppm / pest or weed control at 200 ppm: % disease control rating.

[1] abbreviates: 24 h, one day protectant (1DP), 25 ppm, rating of percent disease control, read-out: SETTTR 1DP 25 ppm.
[2] abbreviates: 24 h, one day protectant (1DP), rating of percent disease control, read-out: SEPTTR 1DP 100 ppm.
[3] abbreviates: 72 h, three day curative (3DC), 25 ppm, rating of percent disease control, read-out: SEPTTR 3DC 25 ppm.
Where [4] appears, read: 72 h, three day curative (3DC), rating of percent disease control, read-out: SEPTTR 3DC 100 ppm.
Where [5] appears, read: 24 h, one day protectant (1DP), 25 ppm (first 1DP column), percent control rating, read-out: SETTTR 1DP 25 ppm.
Where [6] appears, read: 24 h, one day protectant (1DP), 25 ppm as printed (second 1DP column), percent control rating, read-out: SETTTR 1DP 25 ppm.
Setting [7] is: 72 h, three day curative (3DC), 25 ppm, percent control rating, read-out: SEPTTR 3DC 25 ppm.
Where [8] appears, read: 72 h, three day curative (3DC), percent control rating, read-out: SEPTTR 3DC 100 ppm.
The mark [9] stands for this setting: 24 h, one day protectant (1DP), 25 ppm, percent disease control rating, read-out: SETTTR 1DP 25 ppm.
Where [10] appears, read: 24 h, one day protectant (1DP), percent disease control rating, read-out: SEPTTR 1DP 100 ppm.
Setting [11] is: 72 h, three day curative (3DC), 25 ppm, percent disease control rating, read-out: SEPTTR 3DC 25 ppm.
Setting [12] is: 72 h, three day curative (3DC), percent disease control rating, read-out: SEPTTR 3DC 100 ppm.
Where [13] appears, read: 24 h, one day protectant, 25 ppm, rating of percent disease control, read-out: SETTTR 1DP 25 ppm.
Setting [14] is: 24 h, one day protectant, rating of percent disease control, read-out: SEPTTR 1DP 100 ppm.
The mark [15] stands for this setting: 72 h, three day curative, 25 ppm, rating of percent disease control, read-out: SEPTTR 3DC 25 ppm.
Where [16] appears, read: 72 h, three day curative, rating of percent disease control, read-out: SEPTTR 3DC 100 ppm.

In the case of `CCCNC(=O)Nc1nc(OCc2cccc(OC)c2)ncc1F` [Compound 534], the pest or weed control at 25 ppm runs as follows: under setting [1], 0 to 25%; under setting [3], 0 to 25%. The pest or weed control at 100 ppm reads like this: under setting [2], 26 to 50%; under setting [4], 26 to 50%.
Where the note is “24 h, one day protectant”, `CCOCCOc1cccc(COc2ncc(F)c(NC(C)=O)n2)c1` [Compound 884] gave a pest or weed control at 50 ppm of 76 to 100% and a pest or weed control at 200 ppm of 76 to 100%.
As for `Fc1ccc(COc2ncc(F)c(NCc3ccccc3F)n2)c(F)c1` [Compound 921], for the setting “24 h, one day protectant”, the pest or weed control at 50 ppm lay in the range of 76 to 100% and the pest or weed control at 200 ppm lay within 76 to 100%.
With `CN(C)/C=N/c1nc(OC(=O)c2cccc(Cl)c2)ncc1F` [Compound 484], the pest or weed control at 25 ppm by setting is: under setting [1], 76 to 100%; under setting [3], 76 to 100%. Moreover, the pest or weed control at 100 ppm is, setting by setting: under setting [2], 76 to 100%; under setting [4], 76 to 100%.
Take `COc1cc(F)cc(F)c1COc1ncc(F)c(N)n1` [Compound 787]: the pest or weed control at 25 ppm runs as follows: under setting [1], 76 to 100%; under setting [3], 76 to 100%. For the same molecule, the pest or weed control at 100 ppm is, setting by setting: under setting [2], 76 to 100%; under setting [4], 76 to 100%.
Regarding `C=CCOc1ncc(F)c(NOCC)n1` [Compound 1072], the pest or weed control at 25 ppm by setting is: under setting [5], 0 to 25%; under setting [6], 0 to 25%; under setting [7], 0 to 25%. Moreover, the pest or weed control at 100 ppm under setting [8] is 0 to 25%.
On to `CCN(N)c1nc(OCc2cccc(OC)c2)ncc1F` [Compound 340], for which the pest or weed control at 25 ppm lay in the range of 0 to 25% under setting [1] and 26 to 50% under setting [3]. The pest or weed control at 100 ppm runs as follows: under setting [2], 76 to 100%; under setting [4], 76 to 100%.
Consider `COc1ccc(N(N)c2nc(OCc3cccc(OC)c3)ncc2F)cc1` [Compound 31, 5-Fluoro-2-(3-methoxybenzyloxy)-4-(1-(4-methoxyphenyl)-hydrazinyl)pyrimidine], for which the pest or weed control at 25 ppm lay in the range of 0 to 25% under setting [9] and 0 to 25% under setting [11]. Further, the pest or weed control at 100 ppm reads like this: under setting [10], 0 to 25%; under setting [12], 0 to 25%.
Turning to `COCCOC(=O)Nc1nc(OCc2ccccc2)ncc1F` [Compound 174], the pest or weed control at 25 ppm runs as follows: under setting [9], 76 to 100%; under setting [11], 76 to 100%. Further, the pest or weed control at 100 ppm runs as follows: under setting [10], 76 to 100%; under setting [12], 76 to 100%.
For the molecule `Fc1ccc(COc2ncc(F)c(NC3CCCCC3)n2)cc1` [Compound 205], the pest or weed control at 25 ppm is, setting by setting: under setting [1], 0 to 25%; under setting [3], 0 to 25%. Further, the pest or weed control at 100 ppm under setting [2] is 0 to 25% and the pest or weed control at 100 ppm under setting [4] was in the range of 51 to 75%.
Regarding `CCCCCOC(=O)Nc1nc(OCc2ccc(F)cc2)ncc1F` [Compound 984], the pest or weed control at 25 ppm was 76 to 100% under setting [5], 76 to 100% under setting [6] and 76 to 100% under setting [7]. The pest or weed control at 100 ppm under setting [8] is 76 to 100%.
On to `COc1cccc(COc2ncc(F)c(NO)n2)c1` [Compound 161], for which the pest or weed control at 25 ppm was 76 to 100% under setting [9] and 26 to 50% under setting [11]. Further, the pest or weed control at 100 ppm is, setting by setting: under setting [10], 76 to 100%; under setting [12], 76 to 100%.
`Fc1ccc(COc2ncc(F)c(NNc3cccc(F)n3)n2)cc1` [Compound 1047]: the pest or weed control at 25 ppm by setting is: under setting [5], 0 to 25%; under setting [6], 0 to 25%; under setting [7], 26 to 50%. Moreover, the pest or weed control at 100 ppm under setting [8] was 26 to 50%.
Regarding `ON(c1nc(OCc2ccc(F)cc2)ncc1F)C1CCCCC1` [Compound 454], the pest or weed control at 25 ppm by setting is: under setting [1], 0 to 25%; under setting [3], 26 to 50%. Besides, the pest or weed control at 100 ppm runs as follows: under setting [2], 76 to 100%; under setting [4], 0 to 25%.
`Nc1nc(OCc2ccccc2F)ncc1F` [Compound 713]: the pest or weed control at 25 ppm is 76 to 100% under setting [13] and 51 to 75% under setting [15]. In addition, the pest or weed control at 100 ppm runs as follows: under setting [14], 76 to 100%; under setting [16], 76 to 100%.
For the molecule `COc1ccc(COc2ncc(F)c(NCO)n2)cc1F` [Compound 216], the pest or weed control at 25 ppm runs as follows: under setting [1], 76 to 100%; under setting [3], 51 to 75%. The pest or weed control at 100 ppm runs as follows: under setting [2], 76 to 100%; under setting [4], 76 to 100%.
Under “24 h, one day protectant”, `Cc1ccc(CNc2nc(OCC(F)(F)F)ncc2F)cc1` [Compound 872] had a pest or weed control at 50 ppm of 26 to 50% and a pest or weed control at 200 ppm of 51 to 75%.
Consider `Nc1nc(OCc2nccs2)ncc1F` [Compound 628], for which the pest or weed control at 25 ppm reads like this: under setting [13], 26 to 50%; under setting [15], 51 to 75%. The pest or weed control at 100 ppm under setting [14] lay in the range of 76 to 100% and the pest or weed control at 100 ppm under setting [16] lay in the range of 76 to 100%.
`CCOCNc1nc(OCc2ccn(C)n2)ncc1F` [Compound 374]: the pest or weed control at 25 ppm by setting is: under setting [1], 51 to 75%; under setting [3], 76 to 100%. In addition, the pest or weed control at 100 ppm is, setting by setting: under setting [2], 76 to 100%; under setting [4], 76 to 100%.
On to `CC[Si](CC)(CC)Nc1nc(OC(C)c2ccc(F)cc2)ncc1F` (stereo not shown) [Compound 674], for which the pest or weed control at 25 ppm by setting is: under setting [13], 76 to 100%; under setting [15], 76 to 100%. The pest or weed control at 100 ppm fell in the range of 76 to 100% under setting [14] and 76 to 100% under setting [16].
Take `C#CCOc1ncc(F)c(N)n1` [Compound 746]: the pest or weed control at 25 ppm reads like this: under setting [1], 0 to 25%; under setting [3], 0 to 25%. Also, the pest or weed control at 100 ppm under setting [2] lay within 0 to 25% and the pest or weed control at 100 ppm under setting [4] was in the range of 76 to 100%.
As to `O=[N+]([O-])c1ccccc1SNc1nc(OCc2cccc(F)c2)ncc1F` [Compound 117], the pest or weed control at 25 ppm under setting [9] was 26 to 50% and the pest or weed control at 25 ppm under setting [11] lay within 26 to 50%. For the same molecule, the pest or weed control at 100 ppm lay within 51 to 75% under setting [10] and 26 to 50% under setting [12].
With `CCN(/C=N/c1nc(O)ncc1F)CC` [Compound 1131], the pest or weed control at 25 ppm is 76 to 100% (24 h, one day protectant (1DP), 25 ppm (first 1DP column), percent disease control rating, read-out: SETTTR 1DP 25 ppm); 76 to 100% (24 h, one day protectant (1DP), 25 ppm as printed (second 1DP column), percent disease control rating, read-out: SETTTR 1DP 25 ppm); 76 to 100% under setting [11]. Besides, the pest or weed control at 100 ppm under setting [12] lay within 76 to 100%.
As to `O=C(NCc1ccccc1)Nc1nc(OCc2ccc(F)cc2)ncc1F` [Compound 59], the pest or weed control at 25 ppm by setting is: under setting [9], 0 to 25%; under setting [11], 0 to 25%. Besides, the pest or weed control at 100 ppm under setting [10] is 0 to 25% and the pest or weed control at 100 ppm under setting [12] was in the range of 26 to 50%.
With `COc1ccc(CONc2nc(OC)ncc2F)cc1` [Compound 1076], the pest or weed control at 25 ppm under setting [5] fell in the range of 0 to 25%, the pest or weed control at 25 ppm under setting [6] lay within 0 to 25% and the pest or weed control at 25 ppm under setting [7] lay in the range of 0 to 25%. Further, the pest or weed control at 100 ppm under setting [8] fell in the range of 26 to 50%.
As to `Nc1nc(OCc2ccccc2I)ncc1F` [Compound 391], the pest or weed control at 25 ppm lay within 51 to 75% under setting [1] and 26 to 50% under setting [3]. In addition, the pest or weed control at 100 ppm lay in the range of 76 to 100% under setting [2] and 76 to 100% under setting [4].
In the case of `CC(Oc1ncc(F)c(N)n1)c1ccc2ccccc2c1` (stereo not shown) [Compound 57], the pest or weed control at 25 ppm was 76 to 100% under setting [9] and 76 to 100% under setting [11]. The pest or weed control at 100 ppm runs as follows: under setting [10], 76 to 100%; under setting [12], 76 to 100%.
For `C=CCOc1ncc(F)c(NOCc2ccccc2)n1` [Compound 1087], the pest or weed control at 25 ppm under setting [5] lay in the range of 0 to 25%, the pest or weed control at 25 ppm under setting [6] lay in the range of 0 to 25% and the pest or weed control at 25 ppm under setting [7] fell in the range of 0 to 25%. Besides, the pest or weed control at 100 ppm under setting [8] was 0 to 25%.

Values taken from US9204653B2, “5-fluoro pyrimidine derivatives” (DOW AGROSCIENCES LLC, priority 2008, dated 2015).
